# Laboratory results from paper PMC9640980, “Pharmacological evaluation of enantiomerically separated positive allosteric modulators of cannabinoid 1 receptor, GAT591 and GAT593” (Frontiers in Pharmacology, 2022).
# Target: T1, hCB1R (Homo sapiens, UniProt P21554)
# T1 construct: expressed in transfected cells; host or cells: CHO-K1 cell membranes
# Assay: [35S]GTPγS G protein coupling assay, membranes of CHO-K1 cells overexpressing hCB1R
# Format: biochemical
# Conditions: absence of orthosteric agonist, Figure 4B
# Protocol: This assay was conducted as described in previous reports ([Garai et al., 2020]). To summarize, the assay was completed in the presence of [35S]GTPγS (0.1 nM), GDP (30 µM), GTPγS (30 µM) using membranes derived from CHO-K1 cells (1 mg/ml) overexpressing hCB1R. Assay buffer consisted of 50 mM Tris, 10 mM MgCl2, 100 mM NaCl, 0.2 mM EDTA and 1 mM dithiothreitol (DTT) at pH 7.4. Membranes were incubated at 30°C for 90 min in a total volume of […]. Reactions were ended by the addition of ice-cold wash buffer (50 mM Tris and 1 mg/ml BSA, pH 7.4) followed by rapid filtration under vacuum through pre-soaked Whatman GF/B glass-fibre filters in a 24-well sampling manifold (Brandel Cell Harvester; Brandel Inc., Gaithersburg, MD, United States). Reaction wells were washed six times with a 1.2 ml aliquots of Tris-binding buffer. Filters were subsequently oven-dried for 60 min and placed in 3 ml of scintillation fluid (Ultima Gold XR, PerkinElmer). Bound radioactivity was determined by liquid scintillation counting. Basal [35S]GTPγS binding was determined in the presence of […] GDP without any compounds present. Non-specific binding was determined in the presence of […] GTPγS.
# (§1) Data related to EC50 and E max in Figures 3, 4 were obtained with nonlinear regression models (3-parameter model, GraphPad Prism 9.0, San Diego, CA). […] Significance was determined by one- or two-way ANOVA followed by Tukey’s or Bonferroni’s post-hoc test as indicated. p < 0.05 was considered significant and p values were only employed where ANOVA was used. Data related to Figure 5 was analyzed in GraphPad Prism 9.0 was used to analyze in vivo data and p < 0.05 was considered to be statistically significant. Data are expressed as mean ± SEM. Group sizes for all experiments are described in figure legends.
# T1 sequence (P21554 whole entry): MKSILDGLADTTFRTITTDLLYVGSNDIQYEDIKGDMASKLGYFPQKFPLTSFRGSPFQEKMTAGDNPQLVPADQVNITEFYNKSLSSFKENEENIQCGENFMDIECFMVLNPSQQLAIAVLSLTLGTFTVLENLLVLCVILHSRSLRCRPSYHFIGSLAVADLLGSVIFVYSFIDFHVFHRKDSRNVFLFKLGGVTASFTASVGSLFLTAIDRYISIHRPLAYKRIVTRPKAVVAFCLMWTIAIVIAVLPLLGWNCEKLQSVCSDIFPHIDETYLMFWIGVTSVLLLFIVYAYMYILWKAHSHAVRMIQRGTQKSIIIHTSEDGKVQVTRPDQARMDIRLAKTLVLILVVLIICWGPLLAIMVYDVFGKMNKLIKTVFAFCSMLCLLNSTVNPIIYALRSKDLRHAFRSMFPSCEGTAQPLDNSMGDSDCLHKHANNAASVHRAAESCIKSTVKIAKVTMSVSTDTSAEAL
row,Compound,"Emax ± S.E.M., [35S]GTPγS binding, compound alone"
1,O=[N+]([O-])C[C@@H](c1ccccc1F)c1c(-c2cccc(F)c2)[nH]c2c(F)cccc12 [GAT1667],34 ± 2.3 % stimulation above baseline

# Same assay, conditions: absence of orthosteric agonist, value (95% CI), Figure 4B; read-out: EC50 (nM) 95% C.I., [35S]GTPγS binding, compound alone
row,Compound,EC50
1,O=[N+]([O-])C[C@@H](c1ccccc1F)c1c(-c2cccc(F)c2)[nH]c2c(F)cccc12 [GAT1667],8 nM

# Tested on: male C57BL/6 mice
# Assay: Triad assessment in mice: body temperature (rectal thermometer)
# Format: in vivo, mouse
# Conditions: 0.1, 1, 3, or 10 mg/kg i.p. compared to vehicle, male C57BL/6 mice, Figure 5B
# Protocol: (§2) Male C57BL/6 mice (Charles River, Senneville, QC) between 4 and 7 months of age were used for these studies. Animals were group housed at the Laboratory Animal Services Unit (LASU) at the University of Saskatchewan (3-5 animals/cage) with a standard 12:12 light-dark cycle, ad libitum access to food and water, and environmental enrichment. Compounds administered intraperitoneally (i.p.) were prepared in vehicle [ethanol and cremophor in saline (1:1:8)]. Catalepsy was assessed in the bar holding assay 5 min after drug administration. Mice were placed so that their forepaws clasped a 0.7 cm ring clamp positioned 4.5 cm above the surface of the testing space ([Zagzoog et al., 2021]). The length of time the ring was held was recorded in seconds. The trial ended if the mouse turned its head or body or made 3 consecutive escape attempts to a maximum of 60 s. Body temperature was measured by rectal thermometer 15 min after drug administration. Anti-nociceptive effects were measured in the warm water (52 ± 2°C) tail-flick test 20 min after drug administration. Response in this case was defined by the removal of the tail from the warm water, with a maximal response time of 20 s. Catalepsy and tail flick data are presented as percent maximum possible effect (MPE). Compounds were administered at the doses indicated. Experimenters were blinded to treatment for all behavioral assessments and analyses. Animals were purchased, rather than bred, to reduce animal numbers. In all cases, experiments were performed with the approval of the University Animal Care Committee (UACC) at the University of Saskatchewan and are in keeping with the guidelines of the Canadian Council on Animal Care (CCAC) and the ARRIVE guidelines ([Kilkenny et al., 2010]).
row,Compound,"hypothermia, compound alone"
1,O=[N+]([O-])C[C@@H](c1ccccc1F)c1c(-c2cccc(F)c2)[nH]c2c(F)cccc12 [GAT1667],did not produce

# Same assay, conditions: 3 and 10 mg/kg i.p. + sub-threshold 1 mg/kg THC, Figure 5E
row,Compound,"hypothermic effect, co-administered with THC"
1,O=[N+]([O-])C[C@@H](c1ccccc1F)c1c(-c2cccc(F)c2)[nH]c2c(F)cccc12 [GAT1667],significant

# Target: T2, human CB1R (hCB1R) (Homo sapiens, UniProt P21554)
# T2 construct: host or cells: CHO-K1 (PathHunter βarrestin2 line)
# T2 sequence (P21554 whole entry): as above
# Assay: PathHunter βarrestin2 recruitment assay in hCB1R CHO-K1 cells
# Format: cell-based
# Conditions: as agonist (and PAM where stated), Figures 3B,D
# Protocol: (§3) HitHunter (cAMP) and PathHunter (βarrestin2) Chinese hamster ovary (CHO)-K1 cells stably-expressing human CB1R (hCB1R) from DiscoveRx (Eurofins, Freemont, CA) were maintained at 37°C, 5% CO2 in DMEM/F-12 containing 10% fetal bovine serum (FBS) and 5 U × 10^4 U penicillin/streptomycin (ThermoFisher, Mississauga, ON). In addition, 800 μg/ml geneticin was used for CHO-K1 hCB1R HitHunter cAMP cells and 800 μg/ml geneticin and 300 μg/ml hygromycin B was used for CHO-K1 hCB1R PathHunter βarrestin2 cells.
# βarrestin2 recruitment was determined using the hCB1R CHO-K1 cell PathHunter assay (DiscoveRx). Cells (16,000 cells/well in 96 well plates) were incubated overnight in Opti-MEM (Invitrogen) containing 1% FBS at 37°C and 5% CO2. Cells were then simultaneously treated with experimental compounds (0.10 nM–10 µM) for 90 min. Detection solution was added to cells according to the manufacturer’s protocol (DiscoveRx), and cells were incubated for 60 min at room temperature. Chemiluminescence was measured on a Cytation5 plate reader (top read, gain 200, integration time 10 s).
# as §1
row,Compound,"βarrestin2 recruitment to hCB1R, in words"
1,O=[N+]([O-])C[C@@H](c1ccccc1F)c1c(-c2cccc(F)c2)[nH]c2c(F)cccc12 [GAT1667],recruited βarrestin2 as low-potency agonists and PAMs

# Same assay, conditions: compound alone, hCB1R CHO-K1, 90 min, value (95% CI), Figure 3B; read-out: EC50 (nM) 95% C.I., βarrestin2 recruitment as agonist
row,Compound,EC50
1,O=[N+]([O-])C[C@@H](c1ccccc1F)c1c(-c2cccc(F)c2)[nH]c2c(F)cccc12 [GAT1667],> 10000 nM

# Target: T1, hCB1R
# Assay: [3H]CP55,940 radioligand binding to hCB1R CHO-K1 cell membranes
# Conditions: not given
# Protocol: The assay began with the addition of transfected hCB1R CHO-K1 cell membranes (25 µg protein per well). The assays were left to equilibrate at room temperature for 2 h before vacuum filtration using a Millipore Sigma 12-well sampling manifold and filter paper that had been soaked in wash buffer. Each reaction well was washed 3 times with a 2 ml aliquot of Tris-binding buffer. The filters were removed then submerged in 5 ml of scintillation fluid (Ultima Gold F, PerkinElmer, Buckinghamshire, United Kingdom). Radioactivity was quantified by liquid scintillation spectrometry.
# as §1
row,Compound,EC50
1,O=[N+]([O-])C[C@@H](c1ccccc1F)c1c(-c2cccc(F)c2)[nH]c2c(F)cccc12 [GAT1667],28 nM

# Same assay, conditions: 1 nM [3H]CP55,940, Figure 4A
row,Compound,"Emax ± S.E.M., [3H]CP55,940 bound"
1,O=[N+]([O-])C[C@@H](c1ccccc1F)c1c(-c2cccc(F)c2)[nH]c2c(F)cccc12 [GAT1667],230 ± 5.4 % radioligand bound

# Tested on: male C57BL/6 mice
# Assay: Triad assessment in mice: nociception (warm water tail-flick test)
# Format: in vivo, mouse
# Conditions: 0.1, 1, 3, or 10 mg/kg i.p. compared to vehicle, male C57BL/6 mice, Figure 5C
# Protocol: as §2
row,Compound,"anti-nociceptive effects (tail flick), compound alone"
1,O=[N+]([O-])C[C@@H](c1ccccc1F)c1c(-c2cccc(F)c2)[nH]c2c(F)cccc12 [GAT1667],did not produce

# Same assay, conditions: 3 and 10 mg/kg i.p. + sub-threshold 1 mg/kg THC, Figure 5F
row,Compound,"anti-nociceptive effect (tail flick), co-administered with THC"
1,O=[N+]([O-])C[C@@H](c1ccccc1F)c1c(-c2cccc(F)c2)[nH]c2c(F)cccc12 [GAT1667],significant

# Tested on: male C57BL/6 mice
# Assay: Triad assessment in mice: catalepsy (bar holding assay)
# Format: in vivo, mouse
# Conditions: 0.1, 1, 3, or 10 mg/kg i.p. compared to vehicle, male C57BL/6 mice, Figure 5A
# Protocol: as §2
row,Compound,"catalepsy, compound alone"
1,O=[N+]([O-])C[C@@H](c1ccccc1F)c1c(-c2cccc(F)c2)[nH]c2c(F)cccc12 [GAT1667],did not produce

# Same assay, conditions: 3 and 10 mg/kg i.p. + sub-threshold 1 mg/kg THC, Figure 5D
row,Compound,"cataleptic effect, co-administered with THC"
1,O=[N+]([O-])C[C@@H](c1ccccc1F)c1c(-c2cccc(F)c2)[nH]c2c(F)cccc12 [GAT1667],significant

# Target: T2, human CB1R (hCB1R)
# Assay: HitHunter cAMP inhibition assay in hCB1R CHO-K1 cells (10 µM forskolin)
# Format: cell-based
# Conditions: 100 nM CP55,940 + compound, value (95% CI), Figure 3C; read-out: EC50 (nM) 95% C.I., cAMP inhibition as PAM
# Protocol: as §3
# cAMP inhibition was performed in the presence of 10 µM forskolin (FSK) using the DiscoveRx HitHunter assay in hCB1R CHO-K1 cells. Cells (16,000 cells/well in 96 well plates) were incubated overnight in Opti-MEM (Invitrogen) containing 1% FBS at 37°C and 5% CO2. Opti-MEM media was removed and replaced with cell assay buffer (DiscoveRx) and then cells were simultaneously treated with 10 µM FSK and experimental compounds (0.10 nM–10 µM) for 90 min cAMP antibody solution and working detection solutions were added according to the manufacturer’s protocol (DiscoveRx), and cells were incubated for 60 min at room temperature. cAMP solution A was added according to the manufacturer’s protocol (DiscoveRx) and cells were incubated for an additional 60 min at room temperature before chemiluminescence was measured on a Cytation5 plate reader (top read, gain 200, integration time 10 s).
# as §1
row,Compound,EC50
1,O=[N+]([O-])C[C@@H](c1ccccc1F)c1c(-c2cccc(F)c2)[nH]c2c(F)cccc12 [GAT1667],1.8 nM

# Same assay, conditions: compound alone, hCB1R CHO-K1, 90 min, value (95% CI), Figure 3A; read-out: EC50 (nM) 95% C.I., cAMP inhibition as agonist
row,Compound,EC50
1,O=[N+]([O-])C[C@@H](c1ccccc1F)c1c(-c2cccc(F)c2)[nH]c2c(F)cccc12 [GAT1667],1.7 nM

# Tested on: not given
# Assay: not given
# Parameters: method as in Garai et al., 2020
# Conditions: racemic mixtures; ref Garai et al., 2020; cited from earlier work
row,Compound,"metabolic stability and blood brain barrier penetrance, in words"
1,O=[N+]([O-])CC(c1ccccc1F)c1c(-c2cccc(F)c2)[nH]c2c(F)cccc12 (stereo not drawn) [GAT593],superior to GAT591

# Tested on: male C57BL/6 mice
# Assay: not given
# Parameters: method as in Garai et al., 2020
# Conditions: significant relative to vehicle at 3 and 10 mg/kg; ref Garai et al., 2020; cited from earlier work
row,Compound,"anti-nociceptive effect in the tail flick assay, racemate alone"
1,O=[N+]([O-])CC(c1ccccc1F)c1c(-c2cccc(F)c2)[nH]c2cc(F)ccc12 (stereo not drawn) [GAT591],dose-dependent anti-nociceptive effect
2,O=[N+]([O-])CC(c1ccccc1F)c1c(-c2cccc(F)c2)[nH]c2c(F)cccc12 (stereo not drawn) [GAT593],dose-dependent anti-nociceptive effect

# Tested on: male C57BL/6 mice
# Assay: not given
# Parameters: method as in Garai et al., 2020
# Conditions: 0.1, 1, 3, or 10 mg/kg (i.p.) compared to vehicle; ref Garai et al., 2020; cited from earlier work
row,Compound,"catalepsy, racemate alone"
1,O=[N+]([O-])CC(c1ccccc1F)c1c(-c2cccc(F)c2)[nH]c2cc(F)ccc12 (stereo not drawn) [GAT591],did not produce
2,O=[N+]([O-])CC(c1ccccc1F)c1c(-c2cccc(F)c2)[nH]c2c(F)cccc12 (stereo not drawn) [GAT593],did not produce

# Tested on: male C57BL/6 mice
# Assay: not given
# Parameters: method as in Garai et al., 2020
# Conditions: 0.1, 1, 3, or 10 mg/kg (i.p.) compared to vehicle; ref Garai et al., 2020; cited from earlier work
# Remark: another data set of the same source
row,Compound,"hypothermia, racemate alone"
1,O=[N+]([O-])CC(c1ccccc1F)c1c(-c2cccc(F)c2)[nH]c2cc(F)ccc12 (stereo not drawn) [GAT591],did not produce
2,O=[N+]([O-])CC(c1ccccc1F)c1c(-c2cccc(F)c2)[nH]c2c(F)cccc12 (stereo not drawn) [GAT593],did not produce
